The values that follow are results of earlier work, collected in patent US20040048261A1, “Invertebrate choline transporter nucleic acids, polypeptides and uses thereof” (priority 2002, published 2004).

One may read the Ki as a dissociation constant, usually derived from enzyme kinetics or from competition with a known ligand.

Data set [1] concerns the target high-affinity, sodium-dependent system for choline uptake. The settings on record: synaptosome studies, low choline concentrations.
Data set [2] deals with low-affinity, sodium-independent system for choline uptake. The settings on record: synaptosome studies, high choline concentrations, read-out: inhibition constant (Ki).

On to `C[N+]1(C)CCOC(O)(c2ccc(-c3ccc(C4(O)C[N+](C)(C)CCO4)cc3)cc2)C1` (centres unmarked) [HC-3, hemicholinium-3], for which the inhibition constant (Ki) in data set [1] was 0.01 to 0.1 µM; in data set [2] it was around 50 µM.
